Experimental data from patent US20260248752A1, “Oral Care Product And Methods Of Use And Manufacture Thereof” (Colgate-Palmolive Company, priority 2019, published 2026).

Tests used:
Format in all cases: cell-based, Streptococcus mutans
S. mutans biofilm [1] = experiment: pH drop of S. mutans biofilm from glycolysis (total AUC of delta pH); details: for Total AUC of Δ pH: after 24 hours of exposure and addition of growth media, lower AUC = less pH reduction; for Δ (vs control) of total AUC of Δ pH: difference from control (no arginine or xylitol) AUC 29.5
Excerpt: Such drops in pH can be harmful to the health of the oral cavity.

S. mutans = experiment: Growth inhibition of S. mutans in culture by neat solutions of xylitol and/or arginine; details: 24 hours after administration of neat solutions, absence of added sucrose
Method: The ability of xylitol to inhibit the growth of S. mutans is tested in combination with arginine in culture. Percent growth inhibition is measured at 24 hours after administration of the neat solutions listed in the below table.
Results in Table 2 are obtained in the absence of added sucrose.

planktonic S. mutans = experiment: Minimum inhibitory concentration of xylitol, planktonic S. mutans growth (OD 610 nm); details: for growth of S. mutans, optical density (OD 610 nm), mean: 24 hours of exposure
Method: Determining Minimum Inhibitory Concentration (MIC) of Xylitol: In a separate experiment, simple solutions with only xylitol at varying concentrations, tested in combination with a control, are also tested to determine the minimum inhibitor concentration of xylitol needed to inhibit planktonic S. mutans growth in culture.

S. mutans biofilm [2] = experiment: S. mutans biofilm formation by crystal violet staining (OD 590 nm); details: for S. mutans biofilm formation, crystal violet staining (OD 590 nm), mean: 24 hours of exposure
Method: Determining Biofilm Formation with varying amounts of Xylitol: In a separate experiment, simple solutions with only xylitol at varying concentrations, tested in combination with a control, are also tested to determine the minimum amount of xylitol needed to prevent S. mutans biofilm accretion in culture. It is determined that at least 5% xylitol is necessary to inhibit biofilm accretion in culture after 24 hours of exposure.

[3] = in culture after 24 hours of exposure

With `N=C(N)NCCC[C@H](N)C(=O)O` [1.5% arginine, arginine] the “Total AUC of Δ pH” value (S. mutans biofilm [1]) was 28.9, the “Δ (vs control) of total AUC of Δ pH” value (S. mutans biofilm [1]) was 0.6 and the “% growth inhibition relative to control” value (S. mutans) was 4.1%.
`OC[C@@H](O)[C@H](O)[C@@H](O)CO` [Xylitol] was tested, and the “minimum inhibitory concentration of xylitol needed to inhibit planktonic S. mutans growth” value (planktonic S. mutans; [3]) was “at least 10%”, the “growth of S. mutans, optical density (OD 610 nm), mean” value (“growth of S. mutans, optical density” for short) (planktonic S. mutans; xylitol 0.15625%) was 0.256 and the “growth of S. mutans, optical density” value (planktonic S. mutans; xylitol 0.3125%) was 0.268. The “growth of S. mutans, optical density” value (planktonic S. mutans; xylitol 0.625%) was 0.241, the “growth of S. mutans, optical density” value (planktonic S. mutans; xylitol 1.25%) was 0.188 and the “growth of S. mutans, optical density” value (planktonic S. mutans; xylitol 2.5%) was 0.165. For the same compound, the “growth of S. mutans, optical density” value (planktonic S. mutans; xylitol 5%) was 0.114, the “growth of S. mutans, optical density” value (planktonic S. mutans; xylitol 10%) was 0.097 and the “growth of S. mutans, optical density” value (planktonic S. mutans; xylitol 20%) was 0.089. The “growth of S. mutans, optical density” value (planktonic S. mutans; xylitol 40%) was 0.071, the “Total AUC of Δ pH” value (S. mutans biofilm [1]; listed as 1% xylitol) was 27.8 and the “Total AUC of Δ pH” value (S. mutans biofilm [1]; listed as 5% xylitol) was 25.3. For the same compound, the “Total AUC of Δ pH” value (S. mutans biofilm [1]; listed as 10% xylitol) was 24.0, the “Δ (vs control) of total AUC of Δ pH” value (S. mutans biofilm [1]; listed as 1% xylitol) was 1.7 and the “Δ (vs control) of total AUC of Δ pH” value (S. mutans biofilm [1]; listed as 5% xylitol) was 4.2. For the same compound, the “Δ (vs control) of total AUC of Δ pH” value (S. mutans biofilm [1]; listed as 10% xylitol) was 5.5, the “minimum amount of xylitol needed to prevent S. mutans biofilm accretion” value (S. mutans biofilm [2]; [3]) was “at least 5%” and the “S. mutans biofilm formation, crystal violet staining (OD 590 nm), mean” value (shortened to “S. mutans biofilm formation”) (S. mutans biofilm [2]; xylitol 0.15625%) was 0.327. For the same compound, the “S. mutans biofilm formation” value (S. mutans biofilm [2]; xylitol 0.3125%) was 0.338, the “S. mutans biofilm formation” value (S. mutans biofilm [2]; xylitol 0.625%) was 0.301 and the “S. mutans biofilm formation” value (S. mutans biofilm [2]; xylitol 1.25%) was 0.254. The “S. mutans biofilm formation” value (S. mutans biofilm [2]; xylitol 2.5%) was 0.221, the “S. mutans biofilm formation” value (S. mutans biofilm [2]; xylitol 5%) was 0.136 and the “S. mutans biofilm formation” value (S. mutans biofilm [2]; xylitol 10%) was 0.122. The “S. mutans biofilm formation” value (S. mutans biofilm [2]; xylitol 20%) was 0.123, the “S. mutans biofilm formation” value (S. mutans biofilm [2]; xylitol 40%) was 0.109 and the “% growth inhibition relative to control” value (S. mutans; listed as 1% xylitol) was 17.9%. For the same compound, the “% growth inhibition relative to control” value (S. mutans; listed as 5% xylitol) was 40.3% and the “% growth inhibition relative to control” value (S. mutans; listed as 10% xylitol) was 45.6%.
